One series concerns the target PKCγ (Homo sapiens, UniProt P05129). The experiment in a line: Z'-Lyte recombinant enzyme assay, PKCγ. In kind it is biochemical. Here is the method: (§1) Half maximal inhibitory concentrations of Cmpd 1 were determined by Z’-Lyte biochemical assays (Life Technologies SelectScreen™ Kinase Profiling Services, Thermo Fisher Scientific). Kinome selectivity was determined at 1 μM Cmpd 1 concentration against a panel of 119 kinases. The original kinome tree in Fig. 1b was taken from Ref.[68].

A further series deals with T1, PKCζ (Homo sapiens, UniProt Q05513).
T1 sequence (Q05513 1-592): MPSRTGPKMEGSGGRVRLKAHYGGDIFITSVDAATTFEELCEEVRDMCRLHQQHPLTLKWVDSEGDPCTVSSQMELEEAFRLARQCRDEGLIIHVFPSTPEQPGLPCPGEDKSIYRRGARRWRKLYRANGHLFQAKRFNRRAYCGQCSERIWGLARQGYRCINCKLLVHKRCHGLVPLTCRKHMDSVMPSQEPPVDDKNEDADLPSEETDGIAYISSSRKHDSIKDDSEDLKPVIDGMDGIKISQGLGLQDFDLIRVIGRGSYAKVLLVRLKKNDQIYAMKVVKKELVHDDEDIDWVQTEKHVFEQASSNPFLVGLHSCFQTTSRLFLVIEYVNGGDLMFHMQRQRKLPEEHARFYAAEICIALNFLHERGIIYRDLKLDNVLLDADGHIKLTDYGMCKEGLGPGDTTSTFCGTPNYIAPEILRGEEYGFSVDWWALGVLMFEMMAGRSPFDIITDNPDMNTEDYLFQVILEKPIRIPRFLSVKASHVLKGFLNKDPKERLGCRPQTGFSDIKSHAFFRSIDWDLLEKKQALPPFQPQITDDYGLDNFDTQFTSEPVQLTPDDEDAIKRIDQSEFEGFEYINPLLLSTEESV
The experiment in a line: Z'-Lyte recombinant enzyme assay, PKCζ. In kind it is biochemical. The protocol:
as §1

Another series has as its target PKCθ (Homo sapiens, UniProt Q04759). The experiment in a line: Z'-Lyte recombinant enzyme assay, PKCθ. In kind it is biochemical. The protocol:
as §1

The subject of another series is ZSF1 obese rats. Put plainly: 7-day food consumption and body weight study, Cmpd 1 chow, ZSF1 obese rats. In kind it is in vivo, rat. The settings on record: 7 days. The text has this:
To evaluate food consumption in different rat strains, cohorts of 10 male ZSF1 obese rats, 8 male ZSF1 lean littermate rats, and 10 age-matched male Sprague Dawley (SD) rats were divided into two groups and fed chow with or without 0.744 g/kg Cmpd 1 (Cmpd 1 chow) for 7 days.

In another series the target is T2, PKCι (Homo sapiens, UniProt P41743).
T2 sequence (P41743 1-596): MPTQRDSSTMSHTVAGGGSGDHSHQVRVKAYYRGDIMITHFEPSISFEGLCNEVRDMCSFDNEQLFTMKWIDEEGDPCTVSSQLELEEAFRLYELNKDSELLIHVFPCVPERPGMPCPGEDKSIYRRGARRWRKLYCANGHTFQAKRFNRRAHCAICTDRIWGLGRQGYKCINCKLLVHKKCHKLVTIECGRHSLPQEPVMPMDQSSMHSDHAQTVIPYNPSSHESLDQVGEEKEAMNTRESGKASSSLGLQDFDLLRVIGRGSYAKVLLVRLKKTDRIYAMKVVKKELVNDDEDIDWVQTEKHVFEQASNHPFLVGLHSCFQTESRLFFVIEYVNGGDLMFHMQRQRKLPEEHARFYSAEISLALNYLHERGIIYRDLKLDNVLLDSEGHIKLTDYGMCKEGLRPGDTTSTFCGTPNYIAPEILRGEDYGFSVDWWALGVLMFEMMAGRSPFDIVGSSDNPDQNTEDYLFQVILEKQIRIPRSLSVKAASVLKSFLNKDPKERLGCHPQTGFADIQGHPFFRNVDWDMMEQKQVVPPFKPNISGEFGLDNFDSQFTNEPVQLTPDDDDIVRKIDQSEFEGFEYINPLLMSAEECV
Put plainly: Z'-Lyte recombinant enzyme assay, PKCι. In kind it is biochemical. Here is the method: as §1

In series [1] the test system is intact glomeruli isolated from SD rats. Put plainly: PMA-luminol ROS assay in intact glomeruli. As to conditions: intact SD rat glomeruli, 16 μM PMA, luminol luminescence; read-out: IC50, PMA-induced ROS production (change in velocity). In kind it is cell-based. The protocol: For the phorbol 12-myristate 13-acetate (PMA)-luminol assay, glomeruli isolated from PBS-perfused kidneys were diluted in an HBSS solution containing 1 mM luminol, 0.1 M HEPES, and 0.1% fatty-acid free BSA. Approximately 3000 glomeruli were plated per well in a 96-well white OPTI-plate (Perkin Elmer 6005290). The reaction was started by the addition of PMA to a final concentration of 16 μM in the absence or presence of increasing Cmpd 1. Luminol luminescence was read on an Envision plate reader in kinetic read mode.

The next series deals with panel of 119 kinases. Put plainly: Kinome selectivity profiling. The settings on record: 1 μM Cmpd 1, panel of 119 kinases. In kind it is biochemical. The protocol: as §1
A short description of series [2]: 4-day pharmacokinetic study with chow dosing. In kind it is in vivo, rat. As to conditions: ZSF1 obese rats, chow dosing approx. 50 mpk/day, corrected for plasma protein binding. Here is the method:
Three male 12-week old ZSF1 obese rats were fed control or 0.744 g/kg Cmpd 1 chow for 4 days. Food consumption was estimated by measuring food provided versus food remaining in the hopper. Blood was collected through tail vein from each animal at 9 a.m. and 4 p.m. 2 days after chow dosing started, and at 9 a.m. four days after chow dosing started, for PK determination. Plasma protein binding of Cmpd 1 was measured by equilibrium dialysis of the in vitro fraction unbound of Cmpd 1 at a concentration of […] in plasma from pooled male and female CD-1 mice. Plasma was centrifuged and supernatant was analyzed by liquid chromatography–tandem mass spectrometry to detect Cmpd 1 (York Bioanalytical Solutions; York, UK).

Series [3] deals with HEK293 cells overexpressing PKCβ2. The experiment in a line: PMA-induced IL-8 production in HEK293 cells over-expressing PKCβ2. In kind it is cell-based. The settings on record: HEK293 over-expressing PKCβ2, 3 nM PMA, 4-h supernatants; read-out: IC50, inhibition of IL-8 production in response to PMA. The protocol:
For the HEK293 cell-based assay, HEK293 cells engineered to over-express full-length PKCβ2 were stimulated with 3 nM PMA in DMEM media supplemented with 0.5% FBS. 4-h cell culture supernatants were analyzed for IL-8 by MSD (Rockville, MD).

Chain of PKCθ (Q04759 whole entry): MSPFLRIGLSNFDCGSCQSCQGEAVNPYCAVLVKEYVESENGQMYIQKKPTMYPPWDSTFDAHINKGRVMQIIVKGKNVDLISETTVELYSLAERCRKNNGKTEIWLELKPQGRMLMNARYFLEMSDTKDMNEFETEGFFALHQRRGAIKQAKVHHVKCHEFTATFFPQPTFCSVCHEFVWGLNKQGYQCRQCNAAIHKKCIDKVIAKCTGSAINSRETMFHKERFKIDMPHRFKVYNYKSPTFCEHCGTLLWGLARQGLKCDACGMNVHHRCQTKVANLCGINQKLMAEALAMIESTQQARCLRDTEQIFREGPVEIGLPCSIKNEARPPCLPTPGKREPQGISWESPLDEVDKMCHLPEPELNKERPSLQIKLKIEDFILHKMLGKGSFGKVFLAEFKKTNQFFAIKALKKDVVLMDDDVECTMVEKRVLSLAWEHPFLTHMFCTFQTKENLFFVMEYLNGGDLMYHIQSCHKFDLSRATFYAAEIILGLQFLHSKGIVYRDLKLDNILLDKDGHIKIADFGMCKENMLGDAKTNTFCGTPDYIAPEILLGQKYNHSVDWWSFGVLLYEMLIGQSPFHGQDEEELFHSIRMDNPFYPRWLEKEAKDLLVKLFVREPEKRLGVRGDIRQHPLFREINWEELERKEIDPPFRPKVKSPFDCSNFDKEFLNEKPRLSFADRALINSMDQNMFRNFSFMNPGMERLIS

In the case of `Cc1ncc(F)c(Nc2n[nH]c3c2CN(C(=O)N2C[C@@H](C)N(CC4CCOCC4)C[C@@H]2C)C3(C)C)n1` [Cmpd 1, 5-[(2S,5R)-2,5-dimethyl-4-(tetrahydro-2H-pyran-4-ylmethyl)piperazin-l-yl]carbonyl-N-(5-fluoro-2-methylpyrimidin-4-yl)-6,6-dimethyl-1,4,5,6-tetrahydropyrrolo[3,4-c]pyrazol-3-amine], the IC50 (commonly the concentration at which inhibition is half-maximal) at PKCγ was 96 nM; at PKCζ, more than 10 µM; on PKCθ it was 28 nM; on PKCι, more than 10 µM; in [1], 76 nM; in series [3], 26 nM. Besides, the Average food consumption in the series on ZSF1 obese rats is recorded as 24 g/day. Further, the Body weight change result in the series on ZSF1 obese rats is “lost weight”. Further, the “Reduction in food consumption versus no-drug chow” value in the series on ZSF1 obese rats is listed as 37%. Further, the Kinome selectivity entry in the series with panel of 119 kinases was “good selectivity”. Further, the “Free drug concentration in serum, evening” value in series [2] (4 p.m.) is listed as approximately 400 nM. For the same compound, the “Free drug concentration in serum, morning” value in series [2] (9 a.m.) is on record as “roughly 700 nM”.

Values taken from article PMC10560236, “A protein kinase C α and β inhibitor blunts hyperphagia to halt renal function decline and reduces adiposity in a rat model of obesity-driven type 2 diabetes” (Scientific Reports, 2023).
